Read-outs that look alike come from different tables or passages of the source.
Tests used:
SARS-CoV-2 3CL-protease = SARS-CoV-2 3CL-protease (Severe acute respiratory syndrome coronavirus 2 (2019-nCoV) (SARS-CoV-2), UniProt P0DTD1); assay: SARS-CoV-2 3C-Like (3CL) Protease Fluorescence Assay (FRET); type: biochemical
[1] = tested on: 229E human corona virus (hCoV); assay: 229E Live Virus Assay (MRC-5 cells, CPE, ATPlite readout); type: cell-based, hCoV-229E; details: Human coronavirus 229E, MRC5, 144 h, read-out: 229E EC50

SMILES | IC50 (SARS-CoV-2 3CL-protease) | EC50 [1] | EC50 ([1]; MRC-5 cells, hCoV-229E MOI 0.05, 6 days at 34° C., ATPlite, duplicate, ranges defined in μM)
CN(C(=O)[C@H](CC1CC1)NC(=O)c1cc(OC(F)(F)F)c2ncccc2c1)[C@@H](CC(C)(C)C)C(=O)N1C[C@]2(C[C@H]1C#N)C(=O)Nc1ccccc12 [Example 125] | < 100 nM |  | 
CC(C)C[C@@H](C(=O)N1C[C@]2(C[C@H]1C#N)C(=O)Nc1ccccc12)N(C)C(=O)C(NC(=O)c1ccc(F)c(F)c1)c1ccccc1 (stereo partly shown) [Example 118] | < 100 nM |  | 
CC(C)C[C@@H](C(=O)N1C[C@]2(C[C@H]1C#N)C(=O)Nc1ccccc12)N(C)C(=O)[C@H](Cc1ccc(F)cc1)NC(=O)c1cnccn1 [Example 18] | < 100 nM | < 0.1 µM | 
CN(C(=O)[C@@H](NCc1cc(F)c(F)cc1F)C(C)(C)C)[C@@H](Cc1ccccc1)C(=O)N1C[C@]2(C[C@H]1C#N)C(=O)Nc1ccccc12 [Example 30] | < 100 nM | 0.1 to 1 µM | 
Cc1cc(C(=O)N[C@@H](Cc2ccc(F)cc2)C(=O)N(C)[C@@H](CC(C)(C)C)C(=O)N2C[C@]3(C[C@H]2C#N)C(=O)Nc2ccccc23)no1 [Example 39] | < 100 nM | < 0.1 µM | 
[2H]C([2H])([2H])N(C(=O)[C@H](CC1CC1)NC(C)=O)[C@@H](Cc1ccc(F)cc1)C(=O)N1C[C@]2(C[C@H]1C#N)C(=O)Nc1ccccc12 [Example 73] | < 100 nM | < 0.1 µM | 
CC(C)C[C@@H](C(=O)N1C[C@]2(C[C@H]1C#N)C(=O)Nc1ccccc12)N1CC[C@H](NC(=O)OC(C)(C)C)C1=O [Example 10] | 100 to 1000 nM |  | 0.1 to 1 µM
CC(C)[C@H](NC(=O)OC(C)(C)C)C(=O)N(C)[C@@H](Cc1ccccc1)C(=O)N1C[C@]2(C[C@H]1C#N)C(=O)Nc1ccccc12 [Example 47] | < 100 nM | < 0.1 µM | 
CC(C)(C)C[C@H](NC(=O)[C@H](CC1CC1)NC(=O)NC1CC1)C(=O)N1C[C@]2(C[C@H]1C#N)C(=O)Nc1ccccc12 [Example 38] | < 100 nM |  | 
[2H]C([2H])([2H])N(C(=O)[C@H](CC1CC1)NC(=O)C1COC1)[C@@H](Cc1ccc(F)cc1)C(=O)N1C[C@]2(C[C@H]1C#N)C(=O)Nc1ccccc12 [Example 77] | < 100 nM | 0.1 to 1 µM | 
CC(C)(C)C[C@H](NC(=O)[C@H](CC1CC1)NC(=O)OCc1ccccc1)C(=O)N1C[C@]2(C[C@H]1C#N)C(=O)Nc1ccccc12 [Example 94] | < 100 nM | < 0.1 µM | 
CC(C)(C)C[C@H](NC(=O)[C@H](CC1CC1)NC(=O)N1CCOCC1)C(=O)N1C[C@]2(C[C@H]1C#N)C(=O)Nc1ccccc12 [Example 84] | < 100 nM |  | 
CN(C(=O)[C@H](CC1CC1)N1CCOC1=O)[C@@H](CC(C)(C)C)C(=O)N1C[C@]2(C[C@H]1C#N)C(=O)Nc1ccccc12 [Example 72] | < 100 nM | < 0.1 µM | 
CN(C(=O)[C@H](Cc1ccc(F)cc1)N1CCCNC1=O)[C@@H](CC(C)(C)C)C(=O)N1C[C@]2(C[C@H]1C#N)C(=O)Nc1ccccc12 [Example 69] | < 100 nM | 0.1 to 1 µM | 
CC(C)C[C@@H](C(=O)N1C[C@]2(C[C@H]1C#N)C(=O)Nc1ccccc12)N(C)C(=O)[C@H](C)NC(=O)c1ccc(F)cc1 [Example 135] | < 100 nM |  | 
CC(C)(C)C[C@H](NC(=O)[C@H](CC1CC1)NC(=O)C1(c2ccccc2)CC1)C(=O)N1C[C@]2(C[C@H]1C#N)C(=O)Nc1ccccc12 [Example 71] | < 100 nM |  | 
CC(C)[C@@H](NC(=O)OC(C)(C)C)C(=O)N(C)[C@@H](Cc1ccccc1)C(=O)N1C[C@]2(C[C@H]1C#N)C(=O)Nc1ccccc12 [Example 48] | < 100 nM | < 0.1 µM | 
CC(C)(C)C[C@H](NC(=O)[C@H](Cc1ccc(F)cc1)NC(=O)OCc1ccccc1)C(=O)N1C[C@]2(C[C@H]1C#N)C(=O)Nc1ccccc12 [Example 62] | < 100 nM | > 1 µM | 
CC(C)OC(=O)NC(C(=O)N1CCC[C@H]1C(=O)N1C[C@]2(C[C@H]1C#N)C(=O)Nc1ccccc12)C(C)(C)C (stereo partly shown) [Example 59] | > 1000 nM | > 1 µM | 
CC(C)(C)C(NC(=O)c1ccc(F)cc1)C(=O)N1CCC[C@H]1C(=O)N1C[C@]2(C[C@H]1C#N)C(=O)Nc1ccccc12 (stereo partly shown) [Example 58] | > 1000 nM | > 1 µM | 
COC(=O)N[C@@H](CC1CC1)C(=O)N(C)[C@@H](CC(C)C)C(=O)N1C[C@]2(C[C@H]1C#N)C(=O)Nc1ccccc12 [Example 16] | < 100 nM | < 0.1 µM | 
CN(C(=O)[C@H](Cc1ccc(F)cc1)NC(=O)c1cc2c(F)cc(F)c(F)c2[nH]1)[C@@H](CC(C)(C)C)C(=O)N1C[C@]2(C[C@H]1C#N)C(=O)Nc1ccccc12 [Example 7] | < 100 nM | < 0.1 µM | 
CC(=O)N[C@@H](C)C(=O)N(C)[C@@H](CC(C)(C)C)C(=O)N1C[C@]2(C[C@H]1C#N)C(=O)Nc1ccccc12 [Example 129] | < 100 nM |  | 
CC(C)[C@H](NC(=O)c1ccc2c(F)cc(F)cc2n1)C(=O)N(C)[C@@H](CC(C)(C)C)C(=O)N1C[C@]2(C[C@H]1C#N)C(=O)Nc1ccccc12 [Example 109] | < 100 nM | 0.1 to 1 µM | 
CN(C(=O)[C@H](CC1CC1)NS(C)(=O)=O)[C@@H](CC(C)(C)C)C(=O)N1C[C@]2(C[C@H]1C#N)C(=O)Nc1ccccc12 [Example 81] | < 100 nM | < 0.1 µM | 
